The values below are quoted from earlier work in patent publication US10214591B1, “Monoclonal antibody to human line-1 ORF2 protein and method for early detection of transforming cells in pre-neoplastic tissues of a human subject” (Alienor Farma, priority 2015, dated 2019).

Series [1] relates to tumorigenic cell lines.
Series [2] deals with human tumorigenic cells. As to conditions: xenografted mice.

The structures appear in SMILES notation.

With `O=C1Nc2ccc(Cl)cc2[C@@](C#CC2CC2)(C(F)(F)F)O1` [efavirenz, (S)-6-Chloro-4-(cyclopropylethynyl)-1,4-dihydro-4-(trifluoromethyl)-2H-3,1 benzoxazin-2-one], the “effect on proliferation and differentiation of cancer cells” value in series [1] was “reduced proliferation and enhanced differentiation”. Besides, in series [2], the “effect on tumor progression” value is “arrest, or a significant reduction, of tumor progression”. As to `Cc1ccnc2c1NC(=O)c1cccnc1N2C1CC1` [nevirapine], the “effect on proliferation and differentiation of cancer cells” value in series [1] is “reduced proliferation and enhanced differentiation”.
